{"source": "paper PMC5620277", "about": "“The histone methyltransferase EZH2 as a druggable target in SHH medulloblastoma cancer stem cells” (Oncotarget, 2017)", "key": {"EZH2/PRC2": {"target": "T1, EZH2/PRC2 (Homo sapiens, UniProt Q15910)", "T1 construct": "(amino acids 2-end) with N-terminal His tag; His tag (N); host or cells: baculovirus expression system", "assay": "EZH2/PRC2 cell free enzymatic assay (3H-SAM, filter-paper detection)", "type": "biochemical", "procedure": "MC3629 was tested in the cell free enzymatic assay (EZH2/PRC2) in 10-dose IC50 mode with 2-fold serial dilution starting from 400 μM solution, using various histone substrates (histone H3/H4 octamer, histone H3/H4 tetramer, histone H3, and core histone) and SAM as the co-substrate. […] (Figure 2B, and Supplementary Figure 2).\nReagents: Reaction buffer; 50 mM Tris-HCl (pH 8.0), 50 mM NaCl, 1 mM EDTA, 1 mM DTT, 1 mM PMSF, 1% DMSO. Reaction Conditions: EZH2: Complex of human EZH2 (GenBank Accession No. NM_004456), (amino acids 2-end) with N-terminal His tag, MW= 86 kDa, human EED (NM_003797) (a-a 2-end) with N-terminal Flag tag, MW= 51 kDa, human SUZ12 (NM_015355) (a-a 2-end) with N-terminal His tag, MW = 87 kDa, Human AEBP2 (NM_153207) (a-a 2-end) with N-terminal His tag, MW= 53 kDa, and human RbAp48 (NM_005610) (a-a 2-end) with N-terminal His tag, MW = 48 kDa, co-expressed in baculovirus expression system. Substrate: 5 μM histone H3/H4 tetramer. Methyl donor: 1 μM S-adenosyl-L-[methyl-^3H]methionine (^3H-SAM). Enzyme: 100 nM EZH2 complex. Reaction Procedure: the indicated substrate was dissolved in freshly prepared Reaction Buffer; EZH2 was delivered into the substrate solution and mixed gently. The compound was dissolved in DMSO to a stock of 20 mM and was tested in a 10-dose IC50 mode with 2-fold serial dilution starting at 400 μM. The compound was delivered in DMSO into the EZH2 reaction mixture by using Acoustic Technology (Echo 550, LabCyte Inc. Sunnyvale, CA) in nanoliter range, and incubated for 15 min; ^3H-SAM was delivered into the reaction mixture to initiate the reaction; the reaction mixture was incubated for 1 h at 30°C and then delivered to filter-paper for detection; data were analyzed using Excel and GraphPad Prism 5 software for IC50 curve fits. For SAM competition experiments, the same procedure was used with different SAM concentration (1, 2.5. 5, and 10 μM) and H3/H4 octamer as the substrate."}, "mMB-SLCs": {"system": "mMB-SLCs", "assay": "Western Blot of H3K27me3, PCNA, cleaved caspase 3 in mMB-SLCs", "type": "cell-based, mouse", "conditions": "48 h", "procedure": "Afterwards, we tested the ability of MC3629 (at 0.5, 5, and 25 μM) to inhibit the EZH2 enzymatic activity on a cell-based assay in vitro. The lower significant MC3629 dosage to decrease the H3K27me3 level in MB-SLCs was 5 μM (Figure 2C).\n(§1) To evaluate cell viability cells were plated at a density of 5×10^3 cells/well in 96-well plates and were incubated with MTS solution (CellTiter 96® AQueous One Solution Promega).\n(§2) Western blots were performed according to standard procedures. Briefly, protein lysates were prepared using RIPA buffer with fresh protease inhibitors. Lysates were separated on SDS polyacrylamide gels. Proteins were transferred on nitrocellulose membrane (0.45 micron) (PerkinElmer). Membranes were blocked for 1 h at room temperature in 5% nonfat dry milk and incubated overnight at 4°C with antibodies against EZH2 (4905S Cell signaling), H3K27me3 (07-449 Millipore), PCNA (2586 Cell signaling), ACTIN (I-19 sc-1616; Santa Cruz Biotechnology), GAPDH (ab9484, Abcam), cleaved CSP-3 (D-175 9661S; Cell Signaling) and H3 (ab1971, Abcam). HRP-conjugated secondary antibodies (Santa Cruz Biotechnology) were used in combination with enhanced chemiluminescence (ECL Amersham)."}, "DAOY-SLCs": {"system": "DAOY-SLCs", "assay": "Western Blot of H3K27me3 and PCNA in DAOY-SLCs", "type": "cell-based", "conditions": "5 μM, 48 h", "procedure": "as §1, §2"}, "[1]": {"system": "DAOY-SLCs orthotopic tumors (XT-MB)", "assay": "Xenograft DAOY-SLCs orthotopic tumors (XT-MB) in nude mice", "type": "in vivo, mouse", "conditions": "20 μMoles/Kg i.p. twice a week for 3 weeks", "procedure": "Next, we generated xenograft DAOY-SLCs orthotopic tumors (XT-MB) in nude mice that grew as tumor masses with the characteristics of MBs.\nDAOY-SLCs were stereotaxically implanted into the cerebellum of nude mice by using the following coordinates according to the atlas of Franklin and Paxinos: 6.6 mm posterior to the bregma; 1 mm lateral to the midline; and 2 mm ventral from the surface of skull of mice, under ketamine (100 mg/kg, i.p.)/xylazine (10 mg/kg, i.p.) anesthesia. Cells (2×10^5 per 3 μl) were implanted at an infusion rate of 1 μl/min. Mice were separated into two groups. Group 1 (n=8) was intraperitoneally treated with MC3629 (20 μMoles/Kg) suspended in 10% (2-Hydroxypropyl)-β-cyclodextrin +1%DMSO (Sigma), Group 2 (n=8) was treated with 10% (2-Hydroxypropyl)-β-cyclodextrin +1%DMSO (Sigma). After 21 days of treatment, animals were sacrificed and brains were formalin fixed and paraffin embedded. Brain tumor volume calculation: Serial thick coronal sections (2 μm) starting from mesencephalon to the end of cerebellum were performed. The analysis was performed on 20 sections, sampled every 40 μm on the horizontal plan of the cerebellum, in which the tumor was identified and outlined at 2.5X magnification.\nEvery 40 μm of brain slice, hematoxylin and eosin (H&E) staining was performed. Tumor area of every slice was evaluated with a microscope (Axio Imager M1 microscope) equipped with a motorized stage and software Image Pro Plus 6.2. The following formula was used to calculate brain tumor volume: tumor volume = sum of (measured area for each slice x slice thickness x sampling frequency).\nParaffin-embedded sections were deparaffinized, and stained with either H&E or immunohistochemical stains as specified. Heat-induced epitope retrieval was performed with citrate buffer pH 6. Sections were incubated with ki67 primary antibody (Thermo Scientific) for 1 h. Ki67 expression was expressed as percentages of total cells with labeled nuclei."}}, "note": "Where two headings read alike, the source gives them in different places."}
{"smiles": "Cc1cc(C)c(CNC(=O)c2cnn(-c3ccccc3)c2C)c(=O)[nH]1", "note": "[MC3629, N-((4,6-dimethyl-2-oxo-1,2-dihydropyridin-3-yl)methyl)-5-methyl-1-phenyl-1H-pyrazole-4-carboxamide]", "values": [{"measurement": "mechanism of inhibition, SAM competition experiments", "setting": "EZH2/PRC2; histone H3/H4 octamer substrate, SAM 1, 2.5, 5, 10 μM", "result": "SAM-dependent mechanism of inhibition"}, {"measurement": "IC50", "setting": "EZH2/PRC2; histone H3/H4 tetramer substrate, value printed in Figure 2B, read-out: IC50, EZH2/PRC2", "result": 5.27, "unit": "µM"}, {"measurement": "IC50", "setting": "EZH2/PRC2; range over histone substrates (histone H3/H4 octamer, H3/H4 tetramer, histone H3, core histone), SAM co-substrate, 10-dose, 2-fold dilution from 400 μM, read-out: IC50 values, EZH2/PRC2", "result": "5.27 to 15.4", "unit": "µM"}, {"measurement": "H3K27me3 and PCNA protein levels", "setting": "mMB-SLCs; mMB-SLCs, 5 μM", "result": "significantly impaired"}, {"measurement": "apoptosis, level of cleaved caspase 3", "setting": "mMB-SLCs; mMB-SLCs, 5 μM", "result": "induced apoptosis"}, {"measurement": "lower significant dosage to decrease the H3K27me3 level", "setting": "mMB-SLCs; tested at 0.5, 5, 25 μM", "result": 5, "unit": "µM"}, {"measurement": "H3K27me3 and PCNA levels", "setting": "DAOY-SLCs", "result": "down modulated"}, {"measurement": "H3K27me3 in tumor xenografts", "setting": "[1]; Western Blot", "result": "reduction"}, {"measurement": "NANOG protein in tumors", "setting": "[1]; Western Blot", "result": "significantly lower levels"}, {"measurement": "apoptosis, level of cleaved caspase 3 in XT-MB", "setting": "[1]; Western Blot", "result": "induction of apoptosis"}, {"measurement": "proliferating Ki67-positive cells in tumors", "setting": "[1]; immunostaining", "result": "significant reduction"}, {"measurement": "XT-MB growth (xenograft volume)", "setting": "[1]; nude mice", "result": "significantly impaired"}]}
